The values below come from patent US12692254B2, “Benzimidazole inhibitors of PAD enzymes” (BRISTOL-MYERS SQUIBB COMPANY, priority 2018, dated 2026).

In the test the target is human PAD4 (hPAD4) (Homo sapiens, UniProt Q9UM07). Briefly: RFMS human PAD4 functional assay (rapid-fire mass spectrum). The test is classed as biochemical. Conditions: 5 nM hPAD4 enzyme, 250 μM BAEE, 50 μM Calcium; 30 min preincubation, 90 min reaction at 37° C. In outline:
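PAD4 (10 nM) preincubated 30 min with compound (top final 50 μM), then BAEE substrate added in pH 7.5 HEPES buffer with DTT, 50 μM calcium, TPEN; 90 min at 37° C. After TCA quench, citrulline derivatized with phenyl glyoxal (4 mM final, 30 min, 37° C) and quantified by RapidFire MS against internal standard.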

human PAD4 (hPAD4), sequence (Q9UM07 whole entry): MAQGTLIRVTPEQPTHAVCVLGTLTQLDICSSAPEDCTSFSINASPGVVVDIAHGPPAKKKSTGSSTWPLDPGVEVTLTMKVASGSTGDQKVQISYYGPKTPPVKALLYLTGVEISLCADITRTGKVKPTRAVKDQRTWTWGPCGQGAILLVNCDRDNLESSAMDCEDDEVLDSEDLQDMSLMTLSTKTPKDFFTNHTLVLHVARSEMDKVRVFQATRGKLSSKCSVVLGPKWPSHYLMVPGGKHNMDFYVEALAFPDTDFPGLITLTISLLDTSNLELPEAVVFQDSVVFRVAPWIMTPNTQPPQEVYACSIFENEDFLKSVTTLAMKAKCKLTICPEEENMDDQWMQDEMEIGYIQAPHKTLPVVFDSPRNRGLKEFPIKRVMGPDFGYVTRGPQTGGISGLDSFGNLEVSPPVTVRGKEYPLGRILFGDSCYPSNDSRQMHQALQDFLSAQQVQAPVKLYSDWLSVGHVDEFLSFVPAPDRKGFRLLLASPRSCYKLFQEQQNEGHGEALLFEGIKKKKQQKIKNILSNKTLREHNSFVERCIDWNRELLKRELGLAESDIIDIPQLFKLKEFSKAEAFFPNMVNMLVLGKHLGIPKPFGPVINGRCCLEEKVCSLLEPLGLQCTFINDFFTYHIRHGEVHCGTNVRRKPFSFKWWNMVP

On to `COc1cc(C(=O)N2C[C@H](N)C[C@@H](F)C2)cc2nc(-c3cc4ccccc4n3CC3CC3)n(CC3(C)CN(C(=O)c4ccccc4)C3)c12` [Example 460, (3R,5R)-1-{1-[(1-benzoyl-3-methylazetidin-3-yl)methyl]-2-[1-(cyclopropylmethyl)-1H-indol-2-yl]-7-methoxy-1H-1,3-benzodiazole-5-carbonyl}-5-fluoropiperidin-3-amine], for which the IC50 came out at 67 nM. In the case of `COc1cc(C(=O)N2C[C@H]3CC[C@@H]2[C@@H]3N)cc2nc(-c3cc4ccc(Cl)cc4n3CC3CC3)n(CC3CN(c4ccnc(C5CC5)n4)C3)c12` [Example 53, (1R,4R,7R)-2-{2-[6-chloro-1-(cyclopropylmethyl)-1H-indol-2-yl]-1-{[1-(2-cyclopropylpyrimidin-4-yl)azetidin-3-yl]methyl}-7-methoxy-1H-1,3-benzodiazole-5-carbonyl}-2-azabicyclo[2.2.1]heptan-7-amine] it was 157 nM; in that of `COc1cc(C(=O)N2CC3CCC2[C@@H]3N)cc2nc(-c3cc4cccnc4n3CC3CC3)n(CC3CCN(c4ccnc(C#N)n4)CC3)c12` (stereo partly drawn) [Example 218, 4-[4-({5-[(1R,4R.,7R)-7-amino-2-azabicyclo[2.2.1]heptane020 carbonyl]-2-[1-(cyclopropylmethyl)-1H-pyrrolo[2,3-b]pyridin-2-yl]-7-methoxy-1H-1,3-benzodiazol-1-yl}methyl)piperidin-1-yl]pyrimidin-2-carbonitrile], 87 nM; in that of `COc1cc(C(=O)N2C[C@H](N)C[C@@H](F)C2)cc2nc(-c3cc4ccccc4n3CC3CC3)n(CC3CN(C(=O)c4ccccc4)C3)c12` [Example 160, (3R,5R)-1-{1-[(1-benzoylazetidin-3-yl)methyl]-2-[1-(cyclopropylmethyl)-1H-indol-2-yl]-7-methoxy-1H-1,3-benzodiazole-5-carbonyl}-5-fluoropiperidin-3-amine], 25 nM. With `COc1cc(C(=O)N2C[C@H]3CC[C@@H]2[C@@H]3N)cc2nc(-c3cc4ccccc4n3CC3CC3)n(CC3CN(C(=O)c4nnn(C)n4)C3)c12` [Example 142, (1R,4R,7R)-2-{2-[1-(cyclopropylmethyl)-1H-indol-2-yl]-7-methoxy-1-{[1-(2-methyl-2H-1,2,3,4-tetrazole-5-carbonyl)azetidin-3-yl]methyl}-1H-1,3-benzodiazole-5-carbonyl}-2-azabicyclo[2.2.1]heptan-7-amine], the IC50 was 14 nM. In the case of `COc1cc(C(=O)N2CC3CCC2[C@@H]3N)cc2nc(-c3cc4cccnc4n3CC3CC3)n(C3CCN(C(=O)c4ccnc(Cl)c4)CC3)c12` (stereo partly drawn) [Example 239, (1R,4R.,7R)-2-{1-[1-(2-chloropyridine-4-carbonyl)piperidin-4-yl]-2-[1-(cyclopropylmethyl)-1H-pyrrolo[2,3-b]pyridin-2-yl]-7-methoxy-1H-1,3-benzodiazole-5-carbonyl}-2-azabicyclo[2.2.1]heptan-7-amine], the IC50 was determined as 927 nM. Turning to `COc1cc(C(=O)N2CC3CCC2[C@@H]3N)cc2nc(-c3cc4ccccc4n3CC3CC3)n(Cc3cnn(-c4ncccn4)c3)c12` (stereo partly drawn) [Example 402, (7R)-2-{2-[1-(cyclopropylmethyl)-1H-indol-2-yl]-7-methoxy-1-{[1-(pyrimidin-2-yl)-1H-pyrazol-4-yl]methyl}-1H-1,3-benzodiazole-5-carbonyl}-2-azabicyclo[2.2.1]heptan-7-amine], the IC50 is 66 nM.

In the case of `COc1cc(C(=O)N2CC3CCC2[C@@H]3N)cc2nc(-c3cc4ccccc4n3C)n(CC3CN(C(=O)c4ccc(C#N)cc4)C3)c12` (stereo partly drawn) [Example 178, 4-[3-({5-[(7R)-7-amino-2-azabicyclo[2.2.1]heptane-2-carbonyl]-7-methoxy-2-(1-methyl-1H-indol-2-yl)-1H-1,3-benzodiazol-1-yl}methyl)azetidine-1-carbonyl]benzonitrile], the IC50 was found to be 86 nM. On to `COc1cc(C(=O)N2C[C@H]3CC[C@@H]2[C@@H]3N)cc2nc(-c3cc4cccnc4n3CC3CC3)n(C[C@H]3CCN(c4ccnc(C)n4)C3)c12` [Example 208, ((1R,4R,7R)-7-amino-2-azabicyclo[2.2.1]heptan-2-yl)(2-(1-(cyclopropylmethyl)-1H-pyrrolo[2,3-b]pyridin-2-yl)-7-methoxy-1-(((S)-1-(2-methylpyrimidin-4-yl)pyrrolidin-3-yl)methyl)-1H-benzo[d]imidazol-5-yl)methanone], for which the IC50 was determined as 25 nM.

As for `COc1cc(C(=O)N2CC3CCC2[C@@H]3N)cc2nc(-c3cc4cccnc4n3CC3CC3)n(Cc3cnn(-c4ccc(F)cn4)c3)c12` (stereo partly drawn) [Example 371, (7R)-2-{2-[1-(cyclopropylmethyl)-1H-pyrrolo[2,3-b]pyridin-2-yl]-1-{[1-(5-fluoropyridin-2-yl)-1H-pyrazol-4-yl]methyl}-7-methoxy-1H-1,3-benzodiazole-5-carbonyl}-2-azabicyclo[2.2.1]heptan-7-amine], the IC50 came to 30 nM.

Take `COc1cc(C(=O)N2CC3CCC2[C@@H]3N)cc2nc(-c3cc4ccccc4n3CC3CC3)n(CC3CN(C(=O)c4cncnc4)C3)c12` (stereo partly drawn) [Example 443, (7R)-2-{2-[1-(cyclopropylmethyl)-1H-indol-2-yl]-7-methoxy-1-{[1-(pyrimidine-5-carbonyl)azetidin-3-yl]methyl}-1H-1,3-benzodiazole-5-carbonyl}-2-azabicyclo[2.2.1]heptan-7-amine]: the IC50 amounted to 42 nM.

Consider `COc1cc(C(=O)N2C[C@H](N)C[C@@H](F)C2)cc2nc(-c3cc4ccccc4n3CC3CC3)n(CC3CN(c4cncc(C#N)c4)C3)c12` [Example 34, 5-[3-({5-[(3R,5R)-3-amino-5-fluoropiperidine-1-carbonyl]-2-[1-(cyclopropylmethyl)-1H-indol-2-yl]-7-methoxy-1H-1,3-benzodiazol-1-yl}methyl)azetidin-1-yl]pyridine-3-carbonitrile], for which the IC50 was 88 nM.

In the case of `COc1cc(C(=O)N2CCC[C@@H](N)C2)cc2nc(-c3cc4cccnc4n3CC3CC3)n([C@H]3C[C@@H](N)C3)c12` [Example 303, (3R)-1-{2-[1-(cyclopropylmethyl)-1H-pyrrolo[2,3-b]pyridin-2-yl]-7-methoxy-1-[(1s,3s)-3-aminocyclobutyl]-1H-1,3-benzodiazole-5-carbonyl}piperidin-3-amine], the IC50 was found to be 1650 nM. For `COc1cc(C(=O)N2CC3CCC2[C@@H]3N)cc2nc(-c3cc4cccnc4n3CC3CC3)n(Cc3cnn(-c4cccnc4)c3)c12` (stereo partly drawn) [Example 395, (7R)-2-{2-[1-(cyclopropylmethyl)-1H-pyrrolo[2,3-b]pyridin-2-yl]-7-methoxy-1-{[1-(pyridin-3-yl)-1H-pyrazol-4-yl]methyl}-1H-1,3-benzodiazole-5-carbonyl}-2-azabicyclo[2.2.1]heptan-7-amine] the value was 50 nM. In the case of `COc1cc(C(=O)N2CC3CCC2[C@@H]3N)cc2nc(-c3cc4ccccc4n3CC3CC3)n(CCc3cn[nH]c3)c12` (stereo partly drawn) [Example 508, (7R)-2-{2-[1-(cyclopropylmethyl)-1H-indol-2-yl]-7-methoxy-1-[2-(1H-pyrazol-4-yl)ethyl]-1H-1,3-benzodiazole-5-carbonyl}-2-azabicyclo[2.2.1]heptan-7-amine] it was 289 nM; in that of `COc1cc(C(=O)N2C[C@H]3CC[C@@H]2[C@@H]3N)cc2nc(-c3cc4ccccc4n3CC3CC3)n(CC3CN(C(=O)c4cnn(C)c4)C3)c12` [Example 155, (1R,4R,7R)-2-{2-[1-(cyclopropylmethyl)-1H-indol-2-yl]-7-methoxy-1-{[1-(1-methyl-1H-pyrazole-4-carbonyl)azetidin-3-yl]methyl}-1H-1,3-benzodiazole-5-carbonyl}-2-azabicyclo[2.2.1]heptan-7-amine], 22 nM.
